The record followed here is patent publication US5804595A, “Kappa opioid receptor agonists” (Regents of the University of Minnesota, priority 1995, dated 1998).

What is called IC50 is the concentration needed to halve the response being measured.

For the experiment, the system named is mouse vas deferens (MVD) preparations. As to the kind of experiment: Agonist potency in mouse vas deferens (MVD). Format: biochemical. The following applies: arithmetic means of at least three experiments, read-out: IC50 (nM) ± SEM, MVD (Agonist Potencies of Parent Compounds).

For the molecule `CN(C(=O)Cc1ccc(Cl)c(Cl)c1)C(CN1CCCC1)c1ccc([N+](=O)[O-])cc1` (racemic) [Compound 23, 2-(3,4-Dichlorophenyl)-N-methyl-N-[(1R,S)-1-(4-nitrophenyl)-2-(1-pyrrolidinyl)ethyl]acetamide], the IC50 was 197 ± 61 nM.
